Legend:
[1] = compound: O=[As]([O-])(O)O.[K+] [potassium arsenate]; assay: thermal stability z-score vs DMSO; higher = more thermally stabilized by treatment; conditions: HeLa; arsenate concentration 1 mM
Experimental: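 Cellular thermal proteome profiling in HeLa cells treated with 1 mM arsenate for 1 h (DMSO pretreatment), heated to ten temperatures (37-66.3 °C). Soluble protein was quantified by TMT mass spectrometry relative to DMSO controls; the thermal stability score was transformed to a z-score; mean of n = 3 experiments.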

[2] = compound: NC(=O)CCCCC1CCSS1 [lipoamide]; assay: as above; conditions: HeLa, lipoamide concentration 100 µM
Experimental: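 Cellular thermal proteome profiling in HeLa cells. Cells were treated with 100 µM lipoamide for 1 h, with or without 1 mM arsenate for a further 1 h, then heated to ten temperatures (37-66.3 °C), and soluble protein was quantified by TMT mass spectrometry relative to 0.1% DMSO controls. The thermal stability score (sum of log2 fold changes minus the abundance score) was transformed to a z-score; mean of n = 3 experiments.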

[3] = arsenate co-treatment: 1 mM arsenate 1 h
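Further: each temperature applied for 3 min, abundance score taken as mean log2 fold change at the two lowest temperatures, z-score obtained by mean subtraction and division by SD.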

UniProt P10809, sequence (P10809 whole entry): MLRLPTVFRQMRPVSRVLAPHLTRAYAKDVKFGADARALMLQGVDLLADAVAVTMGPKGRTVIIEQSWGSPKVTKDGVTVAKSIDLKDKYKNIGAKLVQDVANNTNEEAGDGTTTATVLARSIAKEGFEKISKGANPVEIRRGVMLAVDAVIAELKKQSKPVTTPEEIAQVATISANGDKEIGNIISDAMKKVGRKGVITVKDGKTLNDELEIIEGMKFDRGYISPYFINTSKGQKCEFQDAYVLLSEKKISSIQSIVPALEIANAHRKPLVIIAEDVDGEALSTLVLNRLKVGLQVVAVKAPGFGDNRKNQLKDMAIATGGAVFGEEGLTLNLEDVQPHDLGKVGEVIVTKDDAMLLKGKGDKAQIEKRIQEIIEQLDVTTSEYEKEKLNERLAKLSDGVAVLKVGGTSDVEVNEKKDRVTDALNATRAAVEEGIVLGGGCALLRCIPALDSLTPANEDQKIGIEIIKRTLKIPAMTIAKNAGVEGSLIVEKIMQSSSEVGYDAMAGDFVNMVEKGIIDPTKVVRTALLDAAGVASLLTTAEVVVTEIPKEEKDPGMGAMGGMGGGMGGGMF
UniProt Q9Y6M1, sequence (Q9Y6M1 whole entry): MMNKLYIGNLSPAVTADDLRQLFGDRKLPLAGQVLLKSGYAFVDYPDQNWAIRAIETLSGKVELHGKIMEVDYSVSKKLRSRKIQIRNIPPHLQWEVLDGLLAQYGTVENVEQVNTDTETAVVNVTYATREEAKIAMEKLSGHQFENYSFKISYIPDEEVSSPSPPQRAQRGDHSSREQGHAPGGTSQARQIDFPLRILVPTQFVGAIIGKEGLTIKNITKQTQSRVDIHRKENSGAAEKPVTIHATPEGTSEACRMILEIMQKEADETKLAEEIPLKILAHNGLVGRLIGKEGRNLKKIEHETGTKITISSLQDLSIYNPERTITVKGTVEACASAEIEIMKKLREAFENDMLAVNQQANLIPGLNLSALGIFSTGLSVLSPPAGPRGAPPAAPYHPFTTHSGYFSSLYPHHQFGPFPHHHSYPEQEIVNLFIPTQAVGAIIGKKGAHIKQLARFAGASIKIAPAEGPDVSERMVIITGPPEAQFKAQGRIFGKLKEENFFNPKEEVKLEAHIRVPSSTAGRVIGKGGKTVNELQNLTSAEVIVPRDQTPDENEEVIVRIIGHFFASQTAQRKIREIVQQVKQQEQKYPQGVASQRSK
UniProt O75054, sequence (O75054 whole entry): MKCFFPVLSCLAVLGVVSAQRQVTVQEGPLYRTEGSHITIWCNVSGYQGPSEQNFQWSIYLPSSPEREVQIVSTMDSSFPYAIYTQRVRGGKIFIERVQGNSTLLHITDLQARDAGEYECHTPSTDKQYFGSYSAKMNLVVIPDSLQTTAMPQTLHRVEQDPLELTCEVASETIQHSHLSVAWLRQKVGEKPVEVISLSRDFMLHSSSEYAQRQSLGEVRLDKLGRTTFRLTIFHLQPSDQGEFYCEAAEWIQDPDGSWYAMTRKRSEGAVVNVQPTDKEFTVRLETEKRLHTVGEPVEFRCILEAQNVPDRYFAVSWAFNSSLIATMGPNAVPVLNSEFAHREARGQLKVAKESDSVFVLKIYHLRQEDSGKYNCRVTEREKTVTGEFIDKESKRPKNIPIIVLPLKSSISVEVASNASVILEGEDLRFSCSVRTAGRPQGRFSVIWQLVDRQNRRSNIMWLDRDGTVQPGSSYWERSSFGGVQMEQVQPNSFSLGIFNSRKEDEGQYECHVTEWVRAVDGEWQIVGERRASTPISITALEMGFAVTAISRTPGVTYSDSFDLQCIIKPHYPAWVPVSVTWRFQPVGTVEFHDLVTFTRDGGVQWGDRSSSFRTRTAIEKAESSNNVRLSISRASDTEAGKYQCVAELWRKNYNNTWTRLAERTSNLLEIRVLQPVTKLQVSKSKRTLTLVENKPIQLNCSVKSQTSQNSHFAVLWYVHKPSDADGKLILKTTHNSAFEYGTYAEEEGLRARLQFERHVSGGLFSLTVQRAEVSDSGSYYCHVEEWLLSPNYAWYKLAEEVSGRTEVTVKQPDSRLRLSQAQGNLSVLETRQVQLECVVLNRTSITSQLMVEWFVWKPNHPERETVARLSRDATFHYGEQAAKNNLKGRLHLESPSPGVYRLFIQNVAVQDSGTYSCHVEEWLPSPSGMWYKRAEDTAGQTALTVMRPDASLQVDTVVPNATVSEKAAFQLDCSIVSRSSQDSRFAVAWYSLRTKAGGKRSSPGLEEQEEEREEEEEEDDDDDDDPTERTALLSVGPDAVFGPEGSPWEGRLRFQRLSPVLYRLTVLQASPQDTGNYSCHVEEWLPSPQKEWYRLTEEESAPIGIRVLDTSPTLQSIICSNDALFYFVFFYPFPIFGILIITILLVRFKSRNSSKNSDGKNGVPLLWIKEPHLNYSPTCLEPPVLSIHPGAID
UniProt O00425, sequence (O00425 whole entry): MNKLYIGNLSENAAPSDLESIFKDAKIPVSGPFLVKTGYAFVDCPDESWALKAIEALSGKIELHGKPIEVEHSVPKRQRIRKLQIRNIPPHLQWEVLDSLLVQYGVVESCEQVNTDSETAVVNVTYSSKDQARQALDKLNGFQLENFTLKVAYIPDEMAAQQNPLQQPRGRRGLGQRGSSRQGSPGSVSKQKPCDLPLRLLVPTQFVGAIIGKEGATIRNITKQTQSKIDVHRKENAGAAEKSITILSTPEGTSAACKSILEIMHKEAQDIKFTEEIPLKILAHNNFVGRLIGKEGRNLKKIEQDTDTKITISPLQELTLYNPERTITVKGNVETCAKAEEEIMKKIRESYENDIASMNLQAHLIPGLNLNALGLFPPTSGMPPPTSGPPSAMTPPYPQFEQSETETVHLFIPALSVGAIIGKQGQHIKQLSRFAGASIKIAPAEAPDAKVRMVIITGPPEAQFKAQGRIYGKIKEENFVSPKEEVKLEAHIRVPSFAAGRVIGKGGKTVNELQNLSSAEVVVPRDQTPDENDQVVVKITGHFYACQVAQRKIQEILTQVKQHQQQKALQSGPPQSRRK
UniProt Q9NSE4, sequence (Q9NSE4 whole entry): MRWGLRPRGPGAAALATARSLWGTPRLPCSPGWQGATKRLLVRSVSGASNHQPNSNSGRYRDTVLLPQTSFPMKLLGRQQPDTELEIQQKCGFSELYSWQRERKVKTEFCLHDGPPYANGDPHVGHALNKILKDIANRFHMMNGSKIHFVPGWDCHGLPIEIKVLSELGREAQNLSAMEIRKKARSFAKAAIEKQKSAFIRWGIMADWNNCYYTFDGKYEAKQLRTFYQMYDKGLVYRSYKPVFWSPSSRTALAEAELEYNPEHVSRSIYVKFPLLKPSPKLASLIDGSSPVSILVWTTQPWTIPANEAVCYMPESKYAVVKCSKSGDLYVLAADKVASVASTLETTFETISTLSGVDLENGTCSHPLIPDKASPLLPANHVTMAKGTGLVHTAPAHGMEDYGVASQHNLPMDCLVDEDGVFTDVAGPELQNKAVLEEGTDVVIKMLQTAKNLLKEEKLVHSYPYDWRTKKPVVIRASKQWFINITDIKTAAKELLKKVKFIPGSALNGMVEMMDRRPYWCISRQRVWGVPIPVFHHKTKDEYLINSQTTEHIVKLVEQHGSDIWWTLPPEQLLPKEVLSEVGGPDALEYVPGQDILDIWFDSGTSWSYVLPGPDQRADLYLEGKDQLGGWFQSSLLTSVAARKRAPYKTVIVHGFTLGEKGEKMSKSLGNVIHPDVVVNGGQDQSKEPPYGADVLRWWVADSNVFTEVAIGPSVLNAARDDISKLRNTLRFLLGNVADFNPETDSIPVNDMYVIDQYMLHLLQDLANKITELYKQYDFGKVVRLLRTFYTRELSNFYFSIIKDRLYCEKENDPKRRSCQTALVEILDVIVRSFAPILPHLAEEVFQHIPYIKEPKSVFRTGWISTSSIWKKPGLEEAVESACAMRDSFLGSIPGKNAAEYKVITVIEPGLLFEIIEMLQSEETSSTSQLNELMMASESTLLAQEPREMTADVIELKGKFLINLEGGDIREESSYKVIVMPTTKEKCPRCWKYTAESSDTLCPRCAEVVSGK
UniProt O75874, sequence (O75874 whole entry): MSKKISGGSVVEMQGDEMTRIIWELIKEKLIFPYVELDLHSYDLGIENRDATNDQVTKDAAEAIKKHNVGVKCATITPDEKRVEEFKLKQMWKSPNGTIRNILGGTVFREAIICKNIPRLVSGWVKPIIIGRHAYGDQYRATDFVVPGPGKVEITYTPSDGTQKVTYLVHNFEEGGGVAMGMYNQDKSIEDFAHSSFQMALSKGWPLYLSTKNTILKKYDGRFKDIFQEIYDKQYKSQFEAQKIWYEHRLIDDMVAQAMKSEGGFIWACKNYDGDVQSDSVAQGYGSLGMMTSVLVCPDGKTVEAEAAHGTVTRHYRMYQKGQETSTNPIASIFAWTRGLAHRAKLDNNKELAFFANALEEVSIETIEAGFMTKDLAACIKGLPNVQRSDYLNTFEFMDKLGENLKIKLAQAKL
UniProt P41134, sequence (P41134 whole entry): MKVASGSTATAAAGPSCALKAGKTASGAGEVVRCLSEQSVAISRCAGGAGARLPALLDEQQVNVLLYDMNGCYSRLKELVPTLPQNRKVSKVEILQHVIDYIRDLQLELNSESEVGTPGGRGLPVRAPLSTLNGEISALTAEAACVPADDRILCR
UniProt Q9Y547, sequence (Q9Y547 whole entry): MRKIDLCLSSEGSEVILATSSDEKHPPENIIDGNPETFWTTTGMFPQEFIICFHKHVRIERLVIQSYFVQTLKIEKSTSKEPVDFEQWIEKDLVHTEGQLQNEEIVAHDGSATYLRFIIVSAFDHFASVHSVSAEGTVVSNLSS
UniProt Q70UQ0, sequence (Q70UQ0 whole entry): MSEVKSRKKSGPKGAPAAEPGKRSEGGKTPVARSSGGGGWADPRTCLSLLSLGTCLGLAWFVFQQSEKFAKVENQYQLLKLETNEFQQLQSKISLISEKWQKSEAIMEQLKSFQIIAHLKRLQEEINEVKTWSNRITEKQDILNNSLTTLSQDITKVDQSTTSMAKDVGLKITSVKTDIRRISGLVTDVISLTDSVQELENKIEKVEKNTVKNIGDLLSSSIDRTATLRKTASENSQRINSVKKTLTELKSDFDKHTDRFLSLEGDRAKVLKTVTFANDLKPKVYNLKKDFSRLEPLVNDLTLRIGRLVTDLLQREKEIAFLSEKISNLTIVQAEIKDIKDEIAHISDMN

Row | Target | thermal stability z-score [1] | thermal stability z-score [2, 3] | thermal stability z-score ([2]; arsenate co-treatment: none)
1 | HSPA13 (UniProt P48723) | -0.112 | -2.72 | -2.35
2 | HSPA14 (UniProt Q0VDF9) | 0.837 | -0.553 | -0.226
3 | HSPB1 (UniProt P04792) | 0.246 | -1.04 | -0.459
4 | HSPB8 (UniProt Q9UJY1) | -0.597 | -0.255 | 0.0407
5 | HSPB11 (UniProt Q9Y547) | -0.48 | -0.309 | 0.124
6 | HSPBP1 (UniProt Q9NZL4) | 0.872 | -0.134 | -0.197
7 | HSPD1 (UniProt P10809) | -0.432 | -0.0897 | 0.0259
8 | HSPE1 (UniProt P61604) | 0.112 | 1.5 | 0.918
9 | HSPG2 (UniProt P98160) | 2.43 | 0.252 | 0.126
10 | HSPH1 (UniProt Q92598) | 0.196 | -0.0648 | -0.0435
11 | HTATIP2 (UniProt Q9BUP3) | 0.453 | -0.914 | -0.584
12 | HTATSF1 (UniProt O43719) | -0.763 | 0.386 | 0.479
13 | HTRA2 (UniProt O43464) | -0.816 | -0.984 | -0.617
14 | HTT (UniProt P42858) | 0.319 | 0.301 | -0.0612
15 | HUS1 (UniProt O60921) | -0.902 | -0.436 | -0.56
16 | HUWE1 (UniProt Q7Z6Z7) | 0.187 | -0.216 | 0.0195
17 | HYI (UniProt Q5T013) | 0.524 | 1.85 | 0.651
18 | HYOU1 (UniProt Q9Y4L1) | 0.592 | -4.47 | -3.4
19 | HYPK (UniProt Q9NX55) | -0.114 | 0.716 | 0.592
20 | IAH1 (UniProt Q2TAA2) | -0.173 | 0.672 | 0.79
21 | IARS2 (UniProt Q9NSE4) | -0.455 | -0.232 | 0.259
22 | IARS (UniProt P41252) | 0.763 | -0.197 | -0.0191
23 | IBA57 (UniProt Q5T440) | -0.431 | -0.0611 | 0.155
24 | IBTK (UniProt Q9P2D0) | -0.576 | -0.734 | -0.319

Row | Target | thermal stability z-score [1] | thermal stability z-score [2, 3] | thermal stability z-score ([2]; arsenate co-treatment: none)
25 | ICAM1 (UniProt P05362) | -0.49 | 0.33 | -0.273
26 | ICOSLG (UniProt O75144) | -0.984 | -0.136 | -0.0493
27 | ICT1 (UniProt Q14197) | -0.225 | -0.321 | -0.282
28 | ID1 (UniProt P41134) | -0.00372 | 0.197 | 0.0434
29 | IDE (UniProt P14735) | 1.24 | 0.708 | 0.717
30 | IDH1 (UniProt O75874) | -0.596 | 0.0654 | -0.257
31 | IDH2 (UniProt P48735) | -0.911 | -0.129 | 0.0632
32 | IDH3A (UniProt P50213) | -1.11 | -0.0281 | -0.439
33 | IDH3B (UniProt O43837) | -1.28 | 0.075 | -1.17
34 | IDH3G (UniProt P51553) | -0.189 | 0.738 | -0.664
35 | IDI1 (UniProt Q13907) | 0.042 | 1.01 | 0.458
36 | IFI16 (UniProt Q16666) | -0.386 | 0.022 | 0.122
37 | IFI30 (UniProt P13284) | -0.049 | 1.71 | 0.524
38 | IFI35 (UniProt P80217) | 2.08 | 1.36 | 0.774
39 | IFIT1 (UniProt P09914) | 0.419 | -0.626 | -0.265
40 | IFIT2 (UniProt P09913) | -0.392 | -0.00168 | -0.0988
41 | IFIT3 (UniProt O14879) | -0.0781 | 0.00563 | -0.0242
42 | IFNGR1 (UniProt P15260) | -1.27 | -0.824 | -1.59
43 | IFRD1 (UniProt O00458) | 1.9 | -0.177 | -0.444
44 | IFRD2 (UniProt Q12894) | 3.33 | 0.798 | 0.638
45 | IFT27 (UniProt Q9BW83) | 0.151 | 0.856 | 0.225
46 | IFT74 (UniProt Q96LB3) | -0.115 | -0.121 | -0.049
47 | IFT81 (UniProt Q8WYA0) | -0.072 | -0.223 | -0.039
48 | IFT122 (UniProt Q9HBG6) | 0.188 | 0.185 | 0.177

Row | Target | thermal stability z-score [1] | thermal stability z-score [2, 3] | thermal stability z-score ([2]; arsenate co-treatment: none)
49 | IFT140 (UniProt Q96RY7) | 0.083 | -0.182 | -0.038
50 | IGBP1 (UniProt P78318) | -0.613 | 0.172 | 0.441
51 | IGF1R (UniProt P08069) | 0.987 | 0.294 | 0.324
52 | IGF2BP1 (UniProt Q9NZI8) | -0.379 | -0.0135 | 0.286
53 | IGF2BP2 (UniProt Q9Y6M1) | -0.165 | -0.00758 | 0.044
54 | IGF2BP3 (UniProt O00425) | -0.579 | -0.521 | -0.325
55 | IGF2R (UniProt P11717) | -0.374 | -1.48 | -0.964
56 | IGHMBP2 (UniProt P38935) | -0.187 | 0.0798 | 0.0388
57 | IGSF3 (UniProt O75054) | -0.196 | 0.454 | -0.247
58 | IGSF8 (UniProt Q969P0) | 0.893 | 0.26 | 0.326
59 | IK (UniProt Q13123) | 1.75 | 1.25 | 0.908
60 | IKBIP (UniProt Q70UQ0) | -0.0459 | -3.01 | -2.3
61 | IKBKAP (UniProt O95163) | -0.261 | -0.193 | -0.141
62 | IKBKB (UniProt O14920) | -0.426 | -0.0799 | -0.108
63 | IKBKG (UniProt Q9Y6K9) | -0.992 | -0.275 | -0.162
64 | IL1RAP (UniProt Q9NPH3) | -0.164 | -0.15 | -0.0435
65 | IL6ST (UniProt P40189) | -1.84 | -1.74 | -1
66 | IL18 (UniProt Q14116) | -0.226 | 0.282 | -0.0498
67 | IL27RA (UniProt Q6UWB1) | 1.33 | -0.395 | 0.44
68 | ILF2 (UniProt Q12905) | -1.96 | 0.0392 | 0.153
69 | ILF3 (UniProt Q12906) | -1.11 | 1.39 | 0.801
70 | ILK (UniProt Q13418) | 0.129 | 0.201 | -0.00153
71 | ILKAP (UniProt Q9H0C8) | -0.406 | 0.624 | 0.292

Reference: the supplement of paper PMC12463676, “Small-molecule dissolution of stress granules by redox modulation benefits ALS models” (Nature Chemical Biology, 2025)
